Where two headings read alike, the source gives them in different places.
Experiments:
Type in all cases: in vivo
[1] = tested on: Euschistus heros (Neotropical Brown Stink Bug); assay: Euschistus heros feeding/contact activity on soybean leaves; details: 120 h
Description: Euschistus heros (Neotropical Brown Stink Bug): Feeding/contact activity
Soybean leaves on agar in 24-well microtiter plates were sprayed with aqueous test solutions prepared from 10′000 ppm DMSO stock solutions. After drying the leaves were infested with N2 nymphs. The samples were assessed for mortality 5 days after infestation.

[2] = tested on: Myzus persicae (Green peach aphid); assay: Myzus persicae feeding/contact activity on sunflower leaf discs; details: foliar, 144 h
Description: Myzus persicae (Green peach aphid): Feeding/Contact activity
Sunflower leaf discs were placed onto agar in a 24-well microtiter plate and sprayed with aqueous test solutions prepared from 10′000 ppm DMSO stock solutions. After drying, the leaf discs were infested with an aphid population of mixed ages. The samples were assessed for mortality 6 days after infestation.

[3] = tested on: Plutella xylostella (Diamond back moth); assay: Plutella xylostella feeding/contact activity on artificial diet; details: 120 h
Description: Plutella xylostella (Diamond back moth): Feeding/contact activity
24-well microtiter plates with artificial diet were treated with aqueous test solutions prepared from 10′000 ppm DMSO stock solutions by pipetting. After drying, the plates were infested with L2 larvae (10 to 15 per well). The samples were assessed for mortality 5 days after infestation.

[4] = tested on: Spodoptera littoralis (Egyptian cotton leaf worm); assay: Spodoptera littoralis feeding/contact activity on cotton leaf discs; details: foliar, 72 h
Description: Spodoptera littoralis (Egyptian cotton leaf worm): Feeding/contact activity
Cotton leaf discs were placed onto agar in 24-well microtiter plates and sprayed with aqueous test solutions prepared from 10′000 ppm DMSO stock solutions. After drying the leaf discs were infested with five L1 larvae. The samples were assessed for mortality 3 days after infestation. […] 2, 3, 4, 5, 6, 7, 8, 9, 10, 11, 12, 13, 14, 15, 16, 17, 18, 19, 20, 21, 22, 23, 24, 25, 26, 27, 28 and 29.

[5] = tested on: Tetranychus urticae (Two-spotted spider mite); assay: Tetranychus urticae feeding/contact activity on bean leaf discs; details: foliar, 192 h, read-out: mortality on mixed population (mobile stages)
Description: Tetranychus urticae (Two-spotted spider mite): Feeding/contact activity
Bean leaf discs on agar in 24-well microtiter plates were sprayed with aqueous test solutions prepared from 10′000 ppm DMSO stock solutions. After drying the leaf discs were infested with a mite population of mixed ages. The samples were assessed for mortality on mixed population (mobile stages) 8 days after infestation.

[6] = application rate 200 ppm, N2 nymphs, assessed 5 days after infestation, read-out: mortality
[7] = application rate 200 ppm, aphid population of mixed ages, assessed 6 days after infestation, read-out: mortality
[8] = application rate 200 ppm, L2 larvae, assessed 5 days after infestation, read-out: mortality
[9] = application rate 200 ppm, L1 larvae, assessed 3 days after infestation, read-out: mortality
[10] = application rate 200 ppm, mite population of mixed ages, assessed 8 days after infestation

Measured: mortality at 200 ppm

COCCN(C(=O)c1cc(-c2cnn(-c3c(OC(F)F)c(C(F)(C(F)(F)F)C(F)(F)F)nn3C)c2)ccc1Cl)C1(C#N)CC1 [Example 7, 2-chloro-N-(1-cyanocyclopropyl)-5-[1-[4-(difluoromethoxy)-2-methyl-5-[1,2,2,2-tetrafluoro-1-(trifluoromethyl)ethyl]pyrazol-3-yl]pyrazol-4-yl]-N-(2-methoxyethyl)benzamide]
≥ 80%: [1]; [6] | [2]; [7] | [3]; [8] | [4]; [9] | [5]; [10]

CCOC(=O)N(C(=O)c1cc(-c2cnn(-c3c(OC(F)F)c(C(F)(C(F)(F)F)C(F)(F)F)nn3C)c2)ccc1Cl)C1(C#N)CC1 [Example 8, ethyl N-[2-chloro-5-[1-[4-(difluoromethoxy)-2-methyl-5-[1,2,2,2-tetrafluoro-1-(trifluoromethyl)ethyl]pyrazol-3-yl]pyrazol-4-yl]benzoyl]-N-(1-cyanocyclopropyl)carbamate]
≥ 80%: [1] | [2] | [3] | [4] | [5]

COCN(C(=O)c1cc(-c2cnn(-c3c(OC(F)F)c(C(F)(C(F)(F)F)C(F)(F)F)nn3C)c2)ccc1Cl)C1(C#N)CC1 [Example 9, 2-chloro-N-(1-cyanocyclopropyl)-5-[1-[4-(difluoromethoxy)-2-methyl-5-[1,2,2,2-tetrafluoro-1-(trifluoromethyl)ethyl]pyrazol-3-yl]pyrazol-4-yl]-N-(methoxymethyl)benzamide]
≥ 80%: [1]; [6] | [2]; [7] | [3]; [8] | [4]; [9] | [5]; [10]

CCOCN(C(=O)c1cc(-c2cnn(-c3c(OC(F)F)c(C(F)(C(F)(F)F)C(F)(F)F)nn3C)c2)ccc1Cl)C1(C#N)CC1 [Example 10, 2-chloro-N-(1-cyanocyclopropyl)-5-[1-[4-(difluoromethoxy)-2-methyl-5-[1,2,2,2-tetrafluoro-1-(trifluoromethyl)ethyl]pyrazol-3-yl]pyrazol-4-yl]-N-(ethoxymethyl)benzamide]
≥ 80%: [1]; [6] | [2]; [7] | [3]; [8] | [4]; [9] | [5]; [10]

Cn1nc(C(F)(C(F)(F)F)C(F)(F)F)c(OC(F)F)c1-n1cc(-c2ccc(Cl)c(C(=O)N(CC#N)C3(C#N)CC3)c2)cn1 [Example 11, 2-chloro-N-(1-cyanocyclopropyl)-N-(cyanomethyl)-5-[1-[4-(difluoromethoxy)-2-methyl-5-[1,2,2,2-tetrafluoro-1-(trifluoromethyl)ethyl]pyrazol-3-yl]pyrazol-4-yl]benzamide]
≥ 80%: [1]; [6] | [2]; [7] | [3]; [8] | [4]; [9] | [5]; [10]

CCOC(=O)N(C(=O)c1cc(-c2cnn(-c3c(OC(F)F)c(C(F)(C(F)(F)F)C(F)(F)F)nn3C)c2)ccc1Cl)C1CC1 [Example 15, ethyl N-[2-chloro-5-[1-[4-(difluoromethoxy)-2-methyl-5-[1,2,2,2-tetrafluoro-1-(trifluoromethyl)ethyl]pyrazol-3-yl]pyrazol-4-yl]benzoyl]-N-cyclopropyl-carbamate]
≥ 80%: [1] | [2] | [3] | [4] | [5]

Cn1nc(C(F)(C(F)(F)F)C(F)(F)F)c(OC(F)F)c1-n1cc(-c2ccc(Cl)c(C(=O)N(CC#N)C3CC3)c2)cn1 [Example 16, 2-chloro-N-(cyanomethyl)-N-cyclopropyl-5-[1-[4-(difluoromethoxy)-2-methyl-5-[1,2,2,2-tetrafluoro-1-(trifluoromethyl)ethyl]pyrazol-3-yl]pyrazol-4-yl]benzamide]
≥ 80%: [1]; [6] | [2]; [7] | [3]; [8] | [4]; [9] | [5]; [10]

Cn1nc(C(F)(C(F)(F)F)C(F)(F)F)c(OC(F)F)c1-n1cc(-c2ccc(Cl)c(C(=O)NC3CC3)c2)cn1 [Example 17, 2-chloro-N-cyclopropyl-5-[1-[4-(difluoromethoxy)-2-methyl-5-[1,2,2,2-tetrafluoro-1-(trifluoromethyl)ethyl]pyrazol-3-yl]pyrazol-4-yl]benzamide]
≥ 80%: [1]; [6] | [2]; [7] | [3]; [8] | [4]; [9] | [5]; [10]

COCC(=O)N(C(=O)c1cc(-c2cnn(-c3c(OC(F)F)c(C(F)(C(F)(F)F)C(F)(F)F)nn3C)c2)ccc1Cl)C1CC1 [Example 22, 2-chloro-N-cyclopropyl-5-[1-[-4-(difluoromethoxy)-2-methyl-5-[1,2,2,2-tetrafluoro-1-(trifluoromethyl)ethyl]pyrazol-3-yl]pyrazol-4-yl]-N-(2-methoxyacetyl)benzamide]
≥ 80%: [1]; [6] | [2]; [7] | [3]; [8] | [4]; [9] | [5]; [10]

COC(=O)N(C(=O)c1cc(-c2cnn(-c3c(OC(F)F)c(C(F)(C(F)(F)F)C(F)(F)F)nn3C)c2)ccc1Cl)C1CC1 [Example 23, methyl N-[2-chloro-5-[1-[4-(difluoromethoxy)-2-methyl-5-[1,2,2,2-tetrafluoro-1-(trifluoromethyl)ethyl]pyrazol-3-yl]pyrazol-4-yl]benzoyl]-N-cyclopropyl-carbamate]
≥ 80%: [1] | [2] | [3] | [4] | [5]

CC(C)OC(=O)N(C(=O)c1cc(-c2cnn(-c3c(OC(F)F)c(C(F)(C(F)(F)F)C(F)(F)F)nn3C)c2)ccc1Cl)C1CC1 [Example 24, isopropyl N-[2-chloro-5-[1-[4-(difluoromethoxy)-2-methyl-5-[1,2,2,2-tetrafluoro-1-(trifluoromethyl)ethyl]pyrazol-3-yl]pyrazol-4-yl]benzoyl]-N-cyclopropyl-carbamate]
≥ 80%: [1] | [2] | [3] | [4] | [5]

CN(C(=O)c1cc(-c2cnn(-c3c(OC(F)F)c(C(F)(C(F)(F)F)C(F)(F)F)nn3C)c2)ccc1Cl)C1CC1 [Example 25, 2-chloro-N-cyclopropyl-5-[1-[4-(difluoromethoxy)-2-methyl-5-[1,2,2,2-tetrafluoro-1-(trifluoromethyl)ethyl]pyrazol-3-yl]pyrazol-4-yl]-N-methyl-benzamide]
≥ 80%: [1]; [6] | [2]; [7] | [3]; [8] | [4]; [9] | [5]; [10]

CCN(C(=O)c1cc(-c2cnn(-c3c(OC(F)F)c(C(F)(C(F)(F)F)C(F)(F)F)nn3C)c2)ccc1Cl)C1CC1 [Example 26, 2-chloro-N-cyclopropyl-5-[1-[4-(difluoromethoxy)-2-methyl-5-[1,2,2,2-tetrafluoro-1-(trifluoromethyl)ethyl]pyrazol-3-yl]pyrazol-4-yl]-N-ethyl-benzamide]
≥ 80%: [1]; [6] | [2]; [7] | [3]; [8] | [4]; [9] | [5]; [10]

CCOCN(C(=O)c1cc(-c2cnn(-c3c(OC(F)F)c(C(F)(C(F)(F)F)C(F)(F)F)nn3C)c2)ccc1Cl)C1CC1 [Example 27, 2-chloro-N-cyclopropyl-5-[1-[4-(difluoromethoxy)-2-methyl-5-[1,2,2,2-tetrafluoro-1-(trifluoromethyl)ethyl]pyrazol-3-yl]pyrazol-4-yl]-N-(ethoxymethyl)benzamide]
≥ 80%: [1]; [6] | [2]; [7] | [3]; [8] | [4]; [9] | [5]; [10]

COCN(C(=O)c1cc(-c2cnn(-c3c(OC(F)F)c(C(F)(C(F)(F)F)C(F)(F)F)nn3C)c2)ccc1Cl)C1CC1 [Example 28, 2-chloro-N-cyclopropyl-5-[1-[4-(difluoromethoxy)-2-methyl-5-[1,2,2,2-tetrafluoro-1-(trifluoromethyl)ethyl]pyrazol-3-yl]pyrazol-4-yl]-N-(methoxymethyl)benzamide]
≥ 80%: [1]; [6] | [2]; [7] | [3]; [8] | [4]; [9] | [5]; [10]
